{"source": "patent US10688189B1", "about": "“Modulated guanidine-containing polymers or nanoparticles” (THE FLORIDA INTERNATIONAL BOARD OF TRUSTEES, priority 2017, dated 2020)", "key": {"[1]": {"molecular_target": "T1, CFTR (Homo sapiens, UniProt P13569)", "T1 construct": "CFTR is located at the apical side (mucosal) of the airway epithelium; endogenous in cells; host or cells: primary NHBE cells, re-differentiated 21 days at the air-liquid interface", "T1 sequence (P13569 whole entry)": "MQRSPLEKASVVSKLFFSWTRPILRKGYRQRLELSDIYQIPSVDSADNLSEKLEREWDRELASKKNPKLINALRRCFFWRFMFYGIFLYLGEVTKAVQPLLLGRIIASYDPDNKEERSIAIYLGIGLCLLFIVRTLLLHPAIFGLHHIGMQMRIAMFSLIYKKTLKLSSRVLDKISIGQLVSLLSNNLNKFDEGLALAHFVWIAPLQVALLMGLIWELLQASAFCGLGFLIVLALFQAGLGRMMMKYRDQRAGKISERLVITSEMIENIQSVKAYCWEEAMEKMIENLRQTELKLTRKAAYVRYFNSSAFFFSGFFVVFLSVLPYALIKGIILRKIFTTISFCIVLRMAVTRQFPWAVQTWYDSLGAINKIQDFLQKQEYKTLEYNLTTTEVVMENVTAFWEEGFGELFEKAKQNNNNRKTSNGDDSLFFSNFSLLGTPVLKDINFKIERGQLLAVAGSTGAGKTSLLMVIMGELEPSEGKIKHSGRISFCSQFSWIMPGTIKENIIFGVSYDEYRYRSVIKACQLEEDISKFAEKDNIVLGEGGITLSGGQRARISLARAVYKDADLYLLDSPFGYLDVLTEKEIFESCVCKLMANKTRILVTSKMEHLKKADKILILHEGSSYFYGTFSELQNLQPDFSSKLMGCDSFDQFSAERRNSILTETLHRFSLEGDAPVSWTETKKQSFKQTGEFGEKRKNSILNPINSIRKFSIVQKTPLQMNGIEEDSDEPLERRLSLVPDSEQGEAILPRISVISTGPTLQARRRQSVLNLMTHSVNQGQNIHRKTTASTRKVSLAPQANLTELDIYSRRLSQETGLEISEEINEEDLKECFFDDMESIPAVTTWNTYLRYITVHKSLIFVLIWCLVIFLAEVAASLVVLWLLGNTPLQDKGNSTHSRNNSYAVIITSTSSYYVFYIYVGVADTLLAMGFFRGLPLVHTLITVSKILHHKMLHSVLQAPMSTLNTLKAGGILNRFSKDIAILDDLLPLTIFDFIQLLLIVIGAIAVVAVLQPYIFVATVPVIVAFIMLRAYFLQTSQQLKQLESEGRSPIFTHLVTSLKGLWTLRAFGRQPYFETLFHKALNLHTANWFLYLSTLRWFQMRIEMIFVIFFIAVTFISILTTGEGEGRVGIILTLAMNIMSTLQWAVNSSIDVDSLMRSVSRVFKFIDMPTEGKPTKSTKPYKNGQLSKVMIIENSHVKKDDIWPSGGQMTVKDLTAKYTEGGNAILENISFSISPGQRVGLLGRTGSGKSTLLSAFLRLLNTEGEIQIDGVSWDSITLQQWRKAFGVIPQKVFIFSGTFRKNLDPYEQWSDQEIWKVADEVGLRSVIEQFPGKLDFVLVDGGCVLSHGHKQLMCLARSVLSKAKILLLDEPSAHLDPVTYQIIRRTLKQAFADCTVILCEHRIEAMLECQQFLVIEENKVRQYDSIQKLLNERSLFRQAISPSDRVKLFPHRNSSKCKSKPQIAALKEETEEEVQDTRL", "assay": "Ussing chamber apical CFTR activity in NHBE cells", "format": "cell-based", "details": "FIG. 12", "from_the_text": "Ussing chamber electrophysiology was used to confirm re-differentiation and polarization as per: Unwalla et al., Am. J. Respir. Cell. Mol. Biol. 2015, 52 (1), 65-74; and Chinnapaiyan et al., Sci Rep. 2018, 8(1), 7984. CFTR is located at the apical side (mucosal) of the airway epithelium. Briefly, NHBE cultures were re-differentiated at the air-liquid interface. Following re-differentiation for 21 days, the snap wells were removed from supports and mounted in Ussing chambers. The short circuit current was measured and allowed to stabilize followed by addition of amiloride (10 μM) added apically to eliminate epithelial sodium channel (ENaC) influences. CFTR activation was affected by addition of albuterol (10 μM) and change in short circuit current (ΔISC) was determined. CFTR specificity was confirmed by addition of CFTR inhibitor CFTRinh172 (20 μM) and the decrease in ΔISC was recorded."}, "[2]": {"details": "cited from earlier work"}}}
{"compound": "CC(C)(C)NCC(O)c1ccc(O)c(CO)c1", "note": "(stereo not drawn) [albuterol]", "values": [{"measurement": "short circuit current on CFTR activation", "setting": "[1]; albuterol 10 μM after amiloride", "result": "sharp current increase occurs immediately"}]}
{"compound": "O=C(O)c1ccc(/C=C2\\SC(=S)N(c3cccc(C(F)(F)F)c3)C2=O)cc1", "note": "[CFIRinh172]", "values": [{"measurement": "short circuit current after CFTR inhibitor", "setting": "[1]; 20 μM after albuterol", "result": "decreased current"}]}
{"compound": "N=C(N)N", "note": "[Guanidine]", "values": [{"measurement": "pKa value of protonated counterpart", "setting": "[2]", "result": 12.48}]}
